This is an account of results in patent publication US20160303081A1, “INHIBITORS OF BETA1-INTEGRIN AND METHODS OF USE” (The Texas A&M University System, priority 2015, published 2016).

The subject of one assay is SKBR3 cells. Kind of assay: Migration/invasion of SKBR3 cells. The assay is classed as cell-based, human. The note with it: SKBR3 cells (FIGS. 16, 17). The text has this: FIG. 16 illustrates that the NR4A1 antagonist DIM-C-pPhCO2ME inhibits migration/invasion of SKBR3 cells.
(§1) Assessing downstream effects of the above β1-integrin inhibition, knockdown of NR4A1 (TR3) by RNA interference decrease migration and invasion performance of SKBr3 and MDA-MB-231 cells (FIG. 14). […] Moreover, the effects of other NR4A1 antagonists on migration and invasion of the breast cancer cells were investigated.

In another assay the target is T1, NR4A1 (Homo sapiens, UniProt P22736).
T1 construct: Panc1 cells were transfected with a GAL4-NR4A1 (full length) construct; expressed in transfected cells; host or cells: Panc1
T1 sequence (P22736 whole entry, the tested form may be a part): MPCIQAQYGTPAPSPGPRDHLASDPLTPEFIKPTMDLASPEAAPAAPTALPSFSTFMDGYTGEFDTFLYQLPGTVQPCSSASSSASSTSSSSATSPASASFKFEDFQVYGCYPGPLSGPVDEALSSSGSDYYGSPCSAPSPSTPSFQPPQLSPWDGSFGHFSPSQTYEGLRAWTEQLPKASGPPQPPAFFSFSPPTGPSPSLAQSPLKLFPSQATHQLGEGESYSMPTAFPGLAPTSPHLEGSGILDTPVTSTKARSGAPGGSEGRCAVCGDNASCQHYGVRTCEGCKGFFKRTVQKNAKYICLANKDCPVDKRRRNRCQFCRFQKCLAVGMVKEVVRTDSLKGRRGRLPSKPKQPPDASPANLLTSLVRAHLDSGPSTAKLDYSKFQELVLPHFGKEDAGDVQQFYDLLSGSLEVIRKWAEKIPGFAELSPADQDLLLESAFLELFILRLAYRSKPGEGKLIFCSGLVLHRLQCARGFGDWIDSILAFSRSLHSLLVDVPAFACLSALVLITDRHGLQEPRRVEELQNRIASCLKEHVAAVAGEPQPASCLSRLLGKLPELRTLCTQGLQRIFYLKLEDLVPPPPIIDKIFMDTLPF
Kind of assay: GAL4-NR4A1 / UAS5-luc transactivation reporter assay in Panc1 cells. The assay is classed as cell-based. The note with it: Panc1 cells transfected with GAL4-NR4A1 (full length) and UAS5-luc reporter; FIG. 2A/2B. From the text: (§2) These compounds bind the receptor and are receptor antagonists. Thus, C-DIMs are the first NR4A1 antagonists that inhibit NR4A1-mediated pro-oncogenic genes/pathways. The transactivation and NR4A1 binding of the p-hydroxyphenyl (DIM-C-pPhOH) analog was initially investigated.
Background: In a reporter assay the amount or activity of a reporter protein is the signal.

For another assay, the system named is MDA-MB-231 cells. Kind of assay: Migration/invasion of MDA-MB-231 cells. The assay is classed as cell-based, human. The note with it: MDA-MB-231 cells (FIG. 15).
Description: FIG. 15 illustrates that the NR4A1 antagonist DIM-C-pPhCO2ME inhibits migration/invasion of MDA-MB-231 cells.
as §1

In assay [1] the target is ligand binding domain (LBD) of NR4A1 (Homo sapiens, UniProt P22736). Kind of assay: Fluorescence quenching binding assay with His-NR4A1 (LBD). The note with it: His-tagged ligand binding domain of NR4A1.
ligand binding domain (LBD) of NR4A1, sequence (P22736 360-595 limits assumed): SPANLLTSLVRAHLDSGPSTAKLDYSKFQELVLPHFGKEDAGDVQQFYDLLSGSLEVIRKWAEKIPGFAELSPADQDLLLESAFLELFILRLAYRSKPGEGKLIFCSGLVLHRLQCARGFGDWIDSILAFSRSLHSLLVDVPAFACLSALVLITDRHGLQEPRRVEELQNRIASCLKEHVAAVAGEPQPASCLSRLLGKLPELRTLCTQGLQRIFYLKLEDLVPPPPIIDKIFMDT
Description: as §2
Using a fluorescent binding assay, a library of C-DIM compounds were screened. Specifically, 14 different C-DIM analogs with pPhX on the bridging carbon (i.e., as R8) were screened, where X was CF3, Br, F, t-Butyl, OCH3, N-dimethylamino, H, OH, C6H5, CN, CH3, Cl, I and CO2Me. Each analog bound the ligand binding domain of NR4A1 and KD values for binding varied from 0.1-0.71 μM.

Assay [2] has as its system β1-integrin. Put plainly: β1-integrin expression, SKBR3 breast cancer cells. Type of assay: cell-based, human. The note with it: SKBR3 cells (FIGS. 11, 12).
The subject of assay [3] is β1-integrin. Kind of assay: β1-integrin expression, MCF-7 breast cancer cells. The following applies: MCF-7 cells. The assay is classed as cell-based.
Assay [4] deals with L3.6pL orthotopic xenograft. The note with it: athymic nude mice, orthotopic model; previous studies; cited from earlier work.
Assay [5] relates to β1-integrin. Put plainly: β1-integrin expression, MDA-MB-231 breast cancer cells. Type of assay: cell-based, human. The note with it: MDA-MB-231 cells (FIGS. 11, 12).
Assay [6] has as its system pancreatic cancer cells. The following applies: stated with previous studies; cited from earlier work.
The subject of assay [7] is pancreatic cancer cells. Put plainly: Boyden Chamber invasion assay, pancreatic cancer cells. The assay is classed as cell-based. The note with it: 20 μM, p<0.001 (FIGS. 4A, 4B). The text has this: FIGS. 4A and 4B illustrate that DIM-C-pPhOH decreases pancreatic cancer cell invasion in a Boyden Chamber assay. Significant inhibition with p<0.001 indicated with “#”.
Previous studies indicate that in pancreatic cancers, NR4A1 regulates pro-survival genes (e.g. survivin) through an Sp1/p300/NR4A1 complex in which Sp1 binds promoter DNA. […] A third pathway involves activation of mTOR which is due to inactivation of p53 by binding NR4A1 and this pathway is only observed in cancer cell lines and tumors expressing wild-type p53.

Assay [8] relates to β1-integrin. Put plainly: β1-integrin expression, RKO colon cancer cells. Type of assay: cell-based. The following applies: RKO colon cancer cells (FIG. 13).
Assay [9] relates to β1-integrin. Put plainly: Expression of β1-integrin and related gene products, pancreatic cancer cells. The assay is classed as cell-based. The note with it: 20 μM (FIG. 7). The protocol: (§3) Discovery of NR4A1-regulated pro-invasion/migration genes was determined using Illumina Human HT-12V4 Beadchip arrays (FIGS. 5A and 5B). Knockdown of NR4A1 in Panc1 cells decreased expression of β1-integrin which is known to play an important role in cell migration and invasion. […] The loss of α5-integrin may be indirect since it was previously reported that β1-integrin silencing by RNAi decreased α5-integrin. […] Decreased adhesion to fibronectin-coated plates was also observed in pancreatic cancer cells treated with DIM-C-pPhOH (FIG. 9), confirming that siNR4A1 and NR4A1 antagonists decrease expression of β1-integrin. This represents a novel approach for targeting this pro-oncogenic factor in pancreatic cancer.

In assay [10] the test system is L3.6pL orthotopic xenograft. Put plainly: L3.6pL orthotopic xenograft in athymic nude mice, tumor lysates by Western blot. The assay is classed as in vivo. The note with it: 30 mg/kg/d, compared to corn oil control; lysate from two animals (FIG. 10). From the text: The tumor lysate from two animals is shown.
On the technique in general: A western blot detects proteins with antibodies after separation by electrophoresis.

Assay [11] has as its system β1-integrin. Kind of assay: β1-integrin expression, SW480 colon cancer cells. The assay is classed as cell-based. The note with it: SW480 colon cancer cells (FIG. 13).
Assay [12] deals with pancreatic cancer cells. Kind of assay: Adhesion to human fibronectin-coated plates, pancreatic cancer cells. The assay is classed as cell-based. The note with it: 20 μM, p<0.001 / p<0.005 (FIG. 9). The protocol: Significant inhibition with p<0.001 indicated with “#” and significant inhibition with p<0.005 indicated with “***”.
as §3

Molecules are shown by their SMILES.

As to `COC(=O)c1ccc(C(c2c[nH]c3ccccc23)c2c[nH]c3ccccc23)cc1` [DIM-C-pPhCO2Me], the migration and invasion entry in the assay on SKBR3 cells is “inhibits migration and invasion”; with MDA-MB-231 cells, “inhibits migration and invasion”. The “luciferase activity (NR4A1-dependent transactivation)” value on NR4A1 was “inhibits NR4A-dependent transactivation”. Also, the “binding to His-NR4A1 (LBD), fluorescence quenching” value in [1] is reported as “binds the LBD of NR4A1”.

As to `Oc1ccc(C(c2c[nH]c3ccccc23)c2c[nH]c3ccccc23)cc1` [DIM-C-pPhOH, 1,1-bis(3′-indolyl)-1-(p-hydroxyphenyl)methane], on NR4A1, the “luciferase activity (NR4A1-dependent transactivation)” value is given as “decreased luciferase activity”. Also, the β1-integrin expression result in the assay on β1-integrin [2] was “decreased β1-integrin expression”; in the assay on β1-integrin [3], “decreased β1-integrin expression”; in the assay with β1-integrin [5] it was “decreased β1-integrin expression”; in the assay with β1-integrin [8] it was “decreases β1-integrin expression”; with β1-integrin [11] it was “decreases β1-integrin expression”. In addition, the tumor growth entry in assay [4] is “inhibits tumor growth”. In addition, in the assay on pancreatic cancer cells [6], the apoptosis entry is recorded as “induce apoptosis”. For the same compound, in the assay with pancreatic cancer cells [6], the “pancreatic cancer cell growth” value was “inhibit pancreatic cancer cell growth”. In assay [1], the “binding to His-NR4A1 (LBD), fluorescence quenching” value is given as “quenches fluorescence”. In addition, the invasion result in the assay with pancreatic cancer cells [7] was “decreased invasion”. In addition, the “β1-integrin and related gene products” value with β1-integrin [9] was “decreases β1-integrin and related gene products”. Moreover, the “expression of α5-integrin in tumor lysates” value in assay [10] is reported as “decreases expression”. In addition, the “expression of β1-integrin in tumor lysates” value in [10] is “decreases expression”. Also, in the assay with pancreatic cancer cells [12], the “cell adhesion to human fibronectin-coated plates” value is given as “decreases pancreatic cancer cell adhesion”.
